Data as given in PubChem BioAssay AID489033 (Sanford-Burnham Center for Chemical Genomics, 2010).
Calls of active or inactive are those of the source. How the calls were made is not given here.

Tested on: 697B B-cell line, NF-kB luciferase reporter luminescence
Test: NF-kB reporter inhibition in B cells, dose response, selectivity assay for T-cell antigen receptor NF-kB inhibitors, 697B cells, luminescence (AID 489033)

SMILES | IC50
COc1cc([C@@H]2c3cc4c(cc3[C@@H](OC)[C@H]3COC(=O)[C@H]23)OCO4)cc(OC)c1O | > 80 µM (inactive)
COc1ccc(C(C(=O)NC2CCCCC2)N(C(=O)CCl)c2ccc(C)cc2)cc1 (stereo not drawn) | < 0.16 µM
COc1ccc(-c2csc(NC(=O)C3CCN(c4ncnc5sc(C)c(C)c45)CC3)n2)cc1OC | 11.6 µM
CCOC(=O)/C=C/S(=O)(=O)c1ccc(NC(C)=O)cc1 | 0.39 µM
CCCc1cc(C(=O)N/N=C/c2ccc(CC)s2)c2ccccc2n1 | 11.6 µM
C=C(C)COc1ccc(-c2[nH]ncc2-c2ccc(OC)c(OC)c2)c(O)c1 | 41.7 µM (inactive)
CC(C)(C)c1ccc(C(=O)Nc2ccc(Oc3cccnc3)nc2)cc1 | 3.28 µM
O=C(Nc1ncc(Cc2ccc(SC(F)F)cc2)s1)c1ccc(OC(F)F)cc1 | > 80 µM (inactive)
CC(=O)NC(c1ccc(C(C)C)cc1)c1ccc2cccnc2c1O (stereo not drawn) | > 80 µM (inactive)
O=C(Nc1ccc(N2CCN(C(=O)c3ccc(Cl)cc3)CC2)cc1)c1ccc2c(c1)OCCO2 | > 80 µM (inactive)
O=C(Nc1cccc2ccccc12)OC1C=CS(=O)(=O)C1 (stereo not drawn) | 10.7 µM
CCCOc1ccccc1C1CC(=O)Nc2cc3c(cc21)OCO3 (stereo not drawn) | > 80 µM (inactive)
Cn1ncc2c(N3CCN(c4ccc(Cl)c(Cl)c4)CC3)ncnc21 | > 80 µM (inactive)
Cc1ccc(C)c(CSc2nc3[nH]ncc3c(=O)[nH]2)c1 | 15.7 µM
CCOc1ccccc1C(=O)Nc1ccc2nc(N3CCN(c4ncccn4)CC3)cc(C)c2c1 | 4.69 µM
Cn1nc(-c2ccccn2)nc2c(=O)n(C)c(=O)nc1-2 | 4.12 µM
COc1ccc(Nc2nc(-c3sc(C)nc3C)cs2)cc1 | > 80 µM (inactive)
COc1ccc(CC(=O)Nc2cccc(-c3nnc(-c4cccc(C)c4)o3)c2)cc1OC | 8.4 µM
Cc1ccc2cccc(NS(=O)(=O)c3ccccc3)c2n1 | 0.94 µM
Cc1ccc(S(=O)(=O)/N=C2\C=C(Nc3ccc(O)cc3)C(=O)c3ccccc32)cc1 | 2.04 µM
O=C(COc1ccccc1-c1ccccc1)N/N=C/c1cccc2ccccc12 | > 80 µM (inactive)
COc1cc([C@@H]2c3cc4c(cc3[C@H](O)[C@H]3COC(=O)[C@H]23)OCO4)cc(OC)c1OC | > 80 µM (inactive)
COc1cccc(C2CC(=O)Nc3cc4c(cc32)CCC4)c1 (stereo not drawn) | > 80 µM (inactive)
CCC(=O)NC(c1ccc(C)cc1)c1ccc2cccnc2c1O (stereo not drawn) | > 80 µM (inactive)
CN(C)S(=O)(=O)c1ccc(Nc2nc(C3CC3)nc3c2nnn3Cc2ccccc2Cl)cc1 | > 80 µM (inactive)

SMILES | IC50
CCOC(=O)c1ccc2nc(Nc3nc4ccc(F)cc4s3)sc2c1 | 20.3 µM (inactive)
CCOC(=O)c1ccccc1NC(=O)Cn1c(-c2nonc2N)nc2ccccc21 | > 80 µM (inactive)
CCOCCCNC(=O)c1cc2c(=O)n3cccc(C)c3nc2n1C | > 80 µM (inactive)
CC(C)(C)C(=O)Nc1ccc(NC(=O)c2ccco2)nc1 | 1.47 µM
Cc1nnc(N/N=C/c2ccccn2)[nH]c1=O | 1.45 µM
COc1cc(C2=NOC(C(=O)NCc3ccc(F)cc3)C2)cc(OC)c1OC (stereo not drawn) | > 80 µM (inactive)
CCOc1ccc(N(C)S(=O)(=O)c2ccc(-c3cc(C)no3)s2)cc1 | > 80 µM (inactive)
CCCCCCCCC[n+]1cccc2c3ccccc3ccc21 | 1.98 µM
COc1ccc(N(C(=O)c2ccccc2C)S(=O)(=O)c2cccs2)cc1 | > 80 µM (inactive)
CSC1=NC(C(Cl)(Cl)Cl)N=C(c2ccc(C)cc2)N1 (stereo not drawn) | > 80 µM (inactive)
CSc1nccc(-c2nn(-c3ccc(C)cc3)ccc2=O)n1 | > 80 µM (inactive)
COc1ccc(C(=O)Nc2ccc3[nH]c(-c4cccc(OC)c4)cc(=O)c3c2)cc1 | > 80 µM (inactive)
CCOC(=O)c1ccc(NC(=O)Cn2cnc3cc(C)c(C)cc32)cc1 | > 80 µM (inactive)
O=S(=O)(Nc1cccc2ncccc12)c1cccs1 | 0.34 µM
COc1cc2c(c(OC)c1OC)-c1ccc(O)cc1[C@@H](NC(C)=O)CC2 | > 80 µM (inactive)
CCc1ccc(S(=O)(=O)/N=C2\C=C(Nc3ccc(O)cc3)C(=O)c3ccccc32)cc1 | 5.19 µM
CCc1ccc(/C=N/NC(=O)c2cc(-c3ccncc3)nc3ccccc23)s1 | 4.09 µM
Clc1ccc2c(c1)C(C1=NCCN1)c1ccccc1CS2 (stereo not drawn) | > 80 µM (inactive)
Cc1cc(/C=C2\Sc3ccccc3N2C)cc(C)[n+]1CC1CCCO1 (stereo not drawn) | > 80 µM (inactive)
Cc1cc(C)c(S(=O)(=O)Nc2ccc3c4c(cccc24)CC3)c(C)c1 | > 80 µM (inactive)
O=C(c1ccccc1)c1cc([N+](=O)[O-])ccc1N1CCOCC1 | > 80 µM (inactive)
COC(=O)c1[nH]c2c(c1C)C(=O)CC(c1cccs1)C2 (stereo not drawn) | > 80 µM (inactive)
C/C=C(\C)C(=O)N[C@@H](c1ccccc1)[C@@H](O)C(=O)O[C@H]1C[C@@]2(O)[C@@H](OC(=O)c3ccccc3)C3[C@](C)(C(=O)[C@H](OC(C)=O)C(=C1C)C2(C)C)[C@H](O)C[C@H]1OC[C@@]31OC(C)=O (stereo partly drawn) | > 80 µM (inactive)
COc1ccc(NC(=O)C(=O)NCC2CCCN2S(=O)(=O)c2cccs2)cc1 (stereo not drawn) | > 80 µM (inactive)
CCCCC(=O)NC(c1ccc(N(C)C)cc1)c1ccc2cccnc2c1O (stereo not drawn) | > 80 µM (inactive)

SMILES | IC50
C[C@@H]1C=CC(=O)O[C@@H]1c1ccc(Cl)cc1 | 5.11 µM
O=C(Sc1cccc2cccnc12)c1ccccc1Br | 3.61 µM
COC(=O)c1ccc(C)c(NS(=O)(=O)c2ccc3c(c2)OCCO3)c1 | > 80 µM (inactive)
C=C1C(=O)C=C2CN(C(=O)c3ccccc3)[C@@](Cc3ccc(F)cc3)(C(=O)OC)[C@@H]12 | 1.01 µM
O=C(Nc1nc(-c2ccccc2)cs1)c1ccc(N2CCOCC2)c([N+](=O)[O-])c1 | 6.64 µM
CN[C@H]1CCc2cc(OC)c(OC)c(OC)c2-c2ccc(OC)c(=O)cc21 | > 80 µM (inactive)
CCOc1ccccc1NS(=O)(=O)c1ccc(-c2cnc(C3CC3)o2)cc1 | > 80 µM (inactive)
CC(Oc1ccc(Cl)cc1Cl)c1nc(-c2ccc(NC(=O)c3ccncc3)cc2)no1 (stereo not drawn) | 29.5 µM (inactive)
Cc1ccc(N2C(=O)c3cccc4c(N)ccc(c34)C2=O)c2cccnc12 | > 80 µM (inactive)
Brc1ccc2c(c1)C(C1=NCCN1)c1ccccc1CS2 (stereo not drawn) | > 80 µM (inactive)
O=C(N/N=C(\c1ccccc1)c1cccnc1)c1cccc(F)c1 | 3.1 µM
CCCCCCCCn1c2c(c(=N)c3c1CCC3)CCCC2 | 27.5 µM (inactive)
C[C@]12CC[C@H](O)C[C@H]1CC[C@@H]1[C@@H]2CC[C@]2(C)[C@@H](C3=CC(=O)OC3)CC[C@]12O | 0.67 µM
Cc1nc(Sc2nnnn2C)c2c3c(sc2n1)CCC3 | > 80 µM (inactive)
CCC/C(O)=C1\C(=O)CC(C)(C)CC1=Nc1ccc(OC)cc1OC | > 80 µM (inactive)
O=C(c1ccccc1)c1nn(-c2ccc(Cl)cc2)c(=O)cc1C(F)(F)F | 6.53 µM
CC1=C([N+](=O)[O-])C(c2ccccc2)C2=C(N1)c1ccccc1C2=O (stereo not drawn) | > 80 µM (inactive)
CCOC(=O)Nc1nc(-c2ccccc2)c(C(=O)c2ccccc2)s1 | > 80 µM (inactive)
Cc1oc(-c2ccc(Cl)cc2)nc1CS(=O)CC(=O)NCCCN1CCN(Cc2ccccc2)CC1 (stereo not drawn) | 60.8 µM (inactive)
Cc1ccc(C(=O)c2cc([N+](=O)[O-])ccc2N2CCCCC2)cc1C | > 80 µM (inactive)
Cc1cccc(NS(=O)(=O)c2ccc(-c3cnc(C4CC4)o3)cc2)c1C | 36.7 µM (inactive)
Cc1nn(C)c(C)c1CN(Cc1nc(CCC(C)C)no1)C(C)C | > 80 µM (inactive)
CCCCc1ccc(NC(=O)c2ccc(N(C)S(C)(=O)=O)cc2)cc1 | > 80 µM (inactive)
COc1ccc(CS(=O)/C(Cl)=C(/Cl)C(=O)Nc2ccc(OC)nc2)cc1 (stereo not drawn) | 1.57 µM
C=C(C)[C@@]12OC3(c4ccccc4)O[C@@H]1C1[C@@H]4O[C@]4(CO)[C@@H](O)[C@]4(O)C(=O)C(C)=C[C@H]4[C@@]1(O3)[C@H](C)[C@H]2OC(=O)/C=C/C=C/c1ccccc1 (stereo partly drawn) | 38.9 µM (inactive)

SMILES | IC50
CCOCCOC(=O)c1[nH]c2c(c1C)C(=O)CC(c1cccs1)C2 (stereo not drawn) | > 80 µM (inactive)
CC1=NNC(=O)/C1=C\c1cn(-c2ccccc2)nc1-c1ccc(Cl)cc1 | 6.48 µM
CCN(CC)c1ccc(/C=N/NC(=O)c2nnn(-c3nonc3N)c2C(C)C)c(O)c1 | 1.5 µM
C/C=C/COC(=O)c1[nH]c2c(c1C)C(=O)CC(c1ccco1)C2 (stereo not drawn) | > 80 µM (inactive)
CCOC(=O)C1CCN(S(=O)(=O)c2c(Cl)ccc3nonc23)CC1 | 1.06 µM
CC(C)(C)c1ccc(C(=O)O/N=C(\N)c2ccccc2)cc1 | 0.17 µM
COc1cc2nc(NC(=O)c3ccco3)sc(=O)c2cc1OC | 0.67 µM
CCn1ncc(C2=NOC(C(=O)NCc3ccc(Cl)cc3)C2)c1C (stereo not drawn) | > 80 µM (inactive)
O=C(Nc1ccc(S(=O)(=O)N2CCCC2)cc1)c1ccc(CN2CCc3ccccc3C2)cc1 | > 80 µM (inactive)
O=[N+]([O-])c1ccc(Sc2ccc(Cl)c(Cl)c2)nc1 | 13.1 µM
COc1ccccc1CNS(=O)(=O)c1ccc(-c2cnc(C3CC3)o2)cc1 | > 80 µM (inactive)
C#CC[N+](C)(C)CCCCCCCCCCCC | 2.56 µM
COc1ccc(/C=N/NC(=O)c2[nH]c3ccc(Br)cc3c2-c2ccccc2)cc1 | > 80 µM (inactive)
COc1ccc(Br)cc1/C(C)=N/NC1=NCCN1 | > 80 µM (inactive)
COc1ccc(OC)c(CCNC(=O)Cn2nc(C)c3c(C)n(-c4ccc(C)cc4)nc3c2=O)c1 | > 80 µM (inactive)
CCOC(=O)c1[nH]c(C)c(C(=O)Nc2ccccc2C)c1C | 40.3 µM (inactive)
COc1ccc(C)cc1NS(=O)(=O)c1ccc(-c2cnc(C3CC3)o2)cc1 | > 80 µM (inactive)
COc1ccc(NC(=O)C(=O)NCC2CCCN2S(=O)(=O)c2ccc(C)cc2)cc1 (stereo not drawn) | > 80 µM (inactive)
Cn1c2c(c(=O)n(C)c1=O)C(C(F)(F)F)(C(F)(F)F)N=C(c1ccc(Cl)cc1)N2 | 1.93 µM
CCOC(=O)COc1cccc2c(=O)n(CC(=O)NCc3ccccc3)ccc12 | > 80 µM (inactive)
COc1cc(-c2noc(C)c2-c2ccc3[nH]ccc3c2)cc(OC)c1OC | > 80 µM (inactive)
CCCCCOC(=O)c1[nH]c2c(c1C)C(=O)CC(c1ccco1)C2 (stereo not drawn) | > 80 µM (inactive)
CCCCCN1C=CC(=C2C(=O)c3ccccc3C2=O)C=C1 | 0.38 µM
